Drawing on patent US20080200338A1, “Heteroaroyl-Substituted Serineamides” (BASF Aktiengesellschaft, priority 2005, published 2008), this text covers melting point for two compounds.

A word on the melting point: it is the temperature, or range, at which the solid turns liquid.

The structures appear in SMILES notation.

Consider `C=CC(OC(C)=O)C(NC(=O)c1cn(C)nc1C(F)(F)F)C(=O)NC` (racemic) [Compound 3.10, 1-{Methylcarbamoyl-[(1-methyl-3-trifluoromethyl-1H-pyrazol-4-carbonyl)amino]methyl}-allyl acetate], for which the melting point worked out at 160 °C.
For `C=CC(O)C(NC(=O)c1cn(C)nc1C(F)(F)F)C(=O)NC` (racemic) [Compound 3.4, N-(2-Hydroxy-1-methylcarbamoylbut-3-enyl)-1-methyl-3-trifluoromethyl-1H-pyrazole-4-carboxamide], the melting point amounted to 136 °C.
